Assay results published in a compilation of properties of binary mixtures (doi:10.1007/s10973-018-7399-0).

Test: xn = mol fraction of the nth substance listed
Settings: 93.2 kPa

CC(=O)[O-].CCCC[NH3+] + CCO
Settings	speed of sound, 293.15 K [m/s]	speed of sound, 298.15 K [m/s]	speed of sound, 303.15 K [m/s]	speed of sound, 308.15 K [m/s]	speed of sound, 313.15 K [m/s]	viscosity, 293.15 K [mPa·s]	viscosity, 298.15 K [mPa·s]	viscosity, 303.15 K [mPa·s]	viscosity, 308.15 K [mPa·s]	viscosity, 313.15 K [mPa·s]
x1 = 0.0501	1196.2	1179.2	–	1145.8	–	1.96	1.76	–	1.44	–
x1 = 0.0992	1225.1	1208.3	1191.7	1175.2	1158.9	2.97	2.65	2.37	2.13	1.93
x1 = 0.15	–	1234.9	1218.5	1202.1	–	–	3.94	3.5	3.11	–
x1 = 0.2001	–	1258.4	1242.1	1225.9	–	–	5.77	5.08	4.49	–
x1 = 0.2511	1296.4	1280.1	1263.9	1247.8	1231.9	9.6	8.32	7.24	6.34	5.58
x1 = 0.3001	–	1299	1282.9	1266.9	–	–	11.6	10	8.67	–
x1 = 0.35	1332.8	1316.6	1300.6	–	1269	19.2	16.3	13.9	–	10.3
x1 = 0.3999	1349.1	–	1317.1	–	1285.6	26.7	–	18.9	–	13.9
x1 = 0.4483	1363.2	1347.1	1331.2	1315.5	–	36.5	30.3	25.4	21.4	–
x1 = 0.4987	–	1361	1345.2	1329.5	1314.1	–	41.2	34.1	28.4	24
x1 = 0.5503	1390.1	–	1358.3	1342.7	1327.3	69.5	–	45.9	37.9	31.6
x1 = 0.6002	1402	–	1370.2	1354.6	1339.2	94	–	60.7	49.5	40.9
x1 = 0.6511	1413.7	1397.6	1381.7	1366.1	–	128	101.1	80.6	65	–
x1 = 0.7008	–	–	1392.4	1376.8	1361.4	–	–	106	84.2	68.1
x1 = 0.7495	–	–	1402.4	1386.7	1371.3	–	–	138	109	86.6
x1 = 0.7988	–	1428.3	1412.2	1396.3	1380.9	–	235	180	140	110
x1 = 0.8496	–	–	1421.9	–	1390.4	–	–	238	–	141
x1 = 0.9015	1466	1448.3	1431.5	1415.3	1399.6	585	424	313	236	181
x1 = 0.9493	1476.4	1457.8	1440.5	1423.9	–	797	566	412	305	–
x1 = 1	1488	1468.3	–	1433	1416.7	1103	765	–	397	295
